IC50 data for 19 compounds are collected here from patent US20240124417A1, “COMPOUNDS USEFUL AS IMMUNOMODULATORS” (Bristol-Myers Squibb Company, priority 2019, published 2024).

Each structure is given as a SMILES string.

In general, IC50 refers to the midpoint of a concentration-inhibition curve.

The target of this assay is T1, PD-1/PD-L1 (Homo sapiens, UniProt Q9NZQ7).
T1 construct: TVMV protease site linker (C); made in house; host or cells: HEK293T cells
The assay can be described thus: PD-1/PD-L1 Homogenous Time-Resolved Fluorescence (HTRF) binding assay. The conditions noted are these: PD-L1-His 10 nM, PD-1-Ig 20 nM. From the text:
The ability of the compounds of the invention to bind to PD-L1 was investigated using a PD-1/PD-L1 Homogenous Time-Resolved Fluorescence (HTRF) binding assay.
Homogenous Time-Resolved Fluorescence (HTRF) binding assay.
The interaction of PD-1 and PD-L1 can be assessed using soluble, purified preparations of the extracellular domains of the two proteins. The PD-1 and PD-L1 protein extracellular domains were expressed as fusion proteins with detection tags, for PD-1, the tag was the Fc portion of Immunoglobulin (PD-1-Ig) and for PD-L1 it was the 6 histidine motif (PD-L1-His). All binding studies were performed in an HTRF assay buffer consisting of dPBS supplemented with 0.1% […] bovine serum albumin and 0.05% (v/v) Tween-20. For the h/PD-L1-His binding assay, inhibitors were pre-incubated with PD-L1-His (10 nM final) for 15 m in 4 μl of assay buffer, followed by addition of PD-1-Ig (20 nM final) in 1 μl of assay buffer and further incubation for 15 m. HTRF detection was achieved using europium crypate-labeled anti-Ig (1 nM final) and allophycocyanin (APC) labeled anti-His (20 nM final). Antibodies were diluted in HTRF detection buffer and 5 μl was dispensed on top of the binding reaction. […] Additional binding assays were established between the human proteins PD-1-Ig/PD-L2-His (20 & 5 nM, respectively) and CD80-His/PD-L1-Ig (100 & 10 nM, respectively). […]

T1 sequence (Q9NZQ7 18-239): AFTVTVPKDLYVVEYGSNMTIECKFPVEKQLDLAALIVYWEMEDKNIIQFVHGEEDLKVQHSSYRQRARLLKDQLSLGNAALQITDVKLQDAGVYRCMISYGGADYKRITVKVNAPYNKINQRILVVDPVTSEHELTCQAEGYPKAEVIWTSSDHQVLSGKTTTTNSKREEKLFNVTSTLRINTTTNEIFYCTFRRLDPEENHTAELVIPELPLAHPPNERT

In turn, `Cc1c(COc2cc(OCc3cncc(C#N)c3)c(CNc3nnn[nH]3)cc2Cl)cccc1-c1cccc(OCCCN2CC[C@@H](O)C2)c1C` [Example 1001, (R)-5-((2-(((1H-Tetrazol-5-yl)amino)methyl)-4-chloro-5-((3′-(3-(3-hydroxypyrrolidin-1-yl)propoxy)-2,2′-dimethyl-[1,1′-biphenyl]-3-yl)methoxy)phenoxy)methyl)nicotinonitrile] returned a half-inhibitory concentration (IC50) of 4.9 nM.
In the case of `Cc1c(COc2cc(OCc3cncc(C#N)c3)c(CNCc3nnn[nH]3)cc2Cl)cccc1-c1cccc(OCCCN2CC[C@@H](O)C2)c1C` [Example 1002, (R)-5-((2-((((1H-Tetrazol-5-yl)methyl)amino)methyl)-4-chloro-5-((3′-(3-(3-hydroxy-pyrrolidin-1-yl)propoxy)-2,2′-dimethyl-[1,1′-biphenyl]-3-yl)methoxy)phenoxy)methyl)-nicotinonitrile] it was 2.9 nM; in that of `Cc1c(COc2cc(OCc3cncc(C#N)c3)c(CN3CCCC(c4ncc[nH]4)C3)cc2Cl)cccc1-c1cccc(OCCCN2CC[C@@H](O)C2)c1C` (stereo partly drawn) [Example 1003, 5-((2-((3-(1H-Imidazol-2-yl)piperidin-1-yl)methyl)-4-chloro-5-((3′-(3-((R)-3-hydroxy-pyrrolidin-1-yl)propoxy)-2,2′-dimethyl-[1,1′-biphenyl]-3-yl)methoxy)phenoxy)methyl)-nicotinonitrile], 1.4 nM; in that of `Cc1c(COc2cc(OCc3cncc(C#N)c3)c(CN(C)CCc3nn[nH]n3)cc2Cl)cccc1-c1cccc(OCCCN2CC[C@@H](O)C2)c1C` [Example 1004, (R)-5-((2-(((2-(2H-Tetrazol-5-yl)ethyl)(methyl)amino)methyl)-4-chloro-5-((3′-(3-(3-hydroxypyrrolidin-1-yl)propoxy)-2,2′-dimethyl-[1,1′-biphenyl]-3-yl)methoxy)phenoxy)-methyl)nicotinonitrile], 1.1 nM.
On to `Cc1c(COc2cc(OCc3cncc(C#N)c3)c(CN(C)C(C)c3nnn[nH]3)cc2Cl)cccc1-c1cccc(OCCCN2CC[C@@H](O)C2)c1C` (stereo partly drawn) [Example 1005, 5-((2-(((1-(1H-Tetrazol-5-yl)ethyl)(methyl)amino)methyl)-4-chloro-5-((3′-(3-((R)-3-hydroxypyrrolidin-1-yl)propoxy)-2,2′-dimethyl-[1,1′-biphenyl]-3-yl)methoxy)phenoxy)methyl)nicotinonitrile], for which the concentration for half-maximal inhibition (IC50) amounted to 2.3 nM.
In turn, `Cc1c(COc2cc(OCc3cncc(C#N)c3)c(CN(C)CC(C)c3nnn[nH]3)cc2Cl)cccc1-c1cccc(OCCCN2CC[C@@H](O)C2)c1C` (stereo partly drawn) [Example 1006, 5-((2-(((2-(1H-Tetrazol-5-yl)propyl)(methyl)amino)methyl)-4-chloro-5-((3′-(3-((R)-3-hydroxypyrrolidin-1-yl)propoxy)-2,2′-dimethyl-[1,1′-biphenyl]-3-yl)methoxy)phenoxy)methyl)nicotinonitrile] registered a half-maximal inhibitory concentration (IC50) of 2.7 nM.
`CCN(Cc1nnn[nH]1)Cc1cc(Cl)c(OCc2cccc(-c3cccc(OCCCN4CC[C@@H](O)C4)c3C)c2C)cc1OCc1cncc(C#N)c1` [Example 1007, (R)-5-((2-((((1H-Tetrazol-5-yl)methyl)(ethyl)amino)methyl)-4-chloro-5-((3′-(3-(3-hydroxypyrrolidin-1-yl)propoxy)-2,2′-dimethyl-[1,1′-biphenyl]-3-yl)methoxy)phenoxy)methyl)nicotinonitrile] returned a half-maximal inhibitory concentration (IC50) of 3 nM.
On to `Cc1c(COc2cc(OCc3cncc(C#N)c3)c(CN3CCCC(c4nnc[nH]4)C3)cc2Cl)cccc1-c1cccc(OCCCN2CC[C@@H](O)C2)c1C` (stereo partly drawn) [Example 1008, 5-((2-((3-(4H-1,2,4-Triazol-3-yl)piperidin-1-yl)methyl)-4-chloro-5-((3′-(3-((R)-3-hydroxypyrrolidin-1-yl)propoxy)-2,2′-dimethyl-[1,1′-biphenyl]-3-yl)methoxy)phenoxy)-methyl)nicotinonitrile], for which the IC50 came out at 4.2 nM.
`Cc1c(COc2cc(OCc3cncc(C#N)c3)c(CN3CCCCC3c3ncc[nH]3)cc2Cl)cccc1-c1cccc(OCCCN2CC[C@@H](O)C2)c1C` (stereo partly drawn) [Example 1009, 5-((2-((2-(1H-Imidazol-2-yl)piperidin-1-yl)methyl)-4-chloro-5-((3′-(3-((R)-3-hydroxy-pyrrolidin-1-yl)propoxy)-2,2′-dimethyl-[1,1′-biphenyl]-3-yl)methoxy)phenoxy)methyl)-nicotinonitrile] registered an IC50 of 0.5 nM.
With `Cc1c(COc2cc(OCc3cncc(C#N)c3)c(CN3CCCCC3c3nc(=O)[nH][nH]3)cc2Cl)cccc1-c1cccc(OCCCN2CC[C@@H](O)C2)c1C` (stereo partly drawn) [Example 1010, 5-((4-Chloro-5-((3′-(3-((R)-3-hydroxypyrrolidin-1-yl)propoxy)-2,2′-dimethyl-[1,1′-biphenyl]-3-yl)methoxy)-2-((2-(5-oxo-2,5-dihydro-1H-1,2,4-triazol-3-yl)piperidin-1-yl)-methyl)phenoxy)methyl)nicotinonitrile], the concentration for half-maximal inhibition (IC50) was 5.3 nM.
On to `Cc1c(COc2cc(OCc3cncc(C#N)c3)c(CN3CCCCC3c3cn[nH]c3)cc2Cl)cccc1-c1cccc(OCCCN2CC[C@@H](O)C2)c1C` (stereo partly drawn) [Example 1011, 5-((2-((2-(1H-Pyrazol-4-yl)piperidin-1-yl)methyl)-4-chloro-5-((3′-(3-((R)-3-hydroxy-pyrrolidin-1-yl)propoxy)-2,2′-dimethyl-[1,1′-biphenyl]-3-yl)methoxy)phenoxy)methyl)-nicotinonitrile], for which the IC50 was determined as 17.5 nM.
For `Cc1c(COc2cc(OCc3cncc(C#N)c3)c(CN3CCCCC3c3nnn[nH]3)cc2Cl)cccc1-c1cccc(OCCCN2CC[C@@H](O)C2)c1C` (stereo partly drawn) [Example 1012, 5-((2-((2-(1H-Tetrazol-5-yl)piperidin-1-yl)methyl)-4-chloro-5-((3′-(3-((R)-3-hydroxy-pyrrolidin-1-yl)propoxy)-2,2′-dimethyl-[1,1′-biphenyl]-3-yl)methoxy)phenoxy)methyl)-nicotinonitrile], the IC50 was 0.7 nM.
Regarding `Cc1c(COc2cc(OCc3cncc(C#N)c3)c(CNCC(C)c3nnn[nH]3)cc2Cl)cccc1-c1cccc(OCCCN2CC[C@@H](O)C2)c1C` (stereo partly drawn) [Example 1013, 5-((2-(((2-(1H-Tetrazol-5-yl)propyl)amino)methyl)-4-chloro-5-((3′-(3-((R)-3-hydroxy-pyrrolidin-1-yl)propoxy)-2,2′-dimethyl-[1,1′-biphenyl]-3-yl)methoxy)phenoxy)methyl)-nicotinonitrile], the IC50 was found to be 3.2 nM.
`Cc1c(COc2cc(OCc3cncc(C#N)c3)c(CNCCc3nnnn3C)cc2Cl)cccc1-c1cccc(OCCCN2CC[C@@H](O)C2)c1C` [Example 1014, (R)-5-((4-Chloro-5-((3′-(3-(3-hydroxypyrrolidin-1-yl)propoxy)-2,2′-dimethyl-[1,1′-biphenyl]-3-yl)methoxy)-2-(((2-(1-methyl-1H-tetrazol-5-yl)ethyl)amino)methyl)-phenoxy)methyl)nicotinonitrile]: the concentration for half-maximal inhibition (IC50) was 2.9 nM.
`Cc1c(COc2cc(OCc3cncc(C#N)c3)c(CN3CCCC3c3nnn[nH]3)cc2Cl)cccc1-c1cccc(OCCCN2CC[C@@H](O)C2)c1C` (stereo partly drawn) [Example 1015, 5-((2-((2-(1H-Tetrazol-5-yl)pyrrolidin-1-yl)methyl)-4-chloro-5-((3′-(3-((R)-3-hydroxy-pyrrolidin-1-yl)propoxy)-2,2′-dimethyl-[1,1′-biphenyl]-3-yl)methoxy)phenoxy)methyl)-nicotinonitrile] yielded a 50% inhibitory concentration (IC50) of 2.9 nM.
In the case of `Cc1c(COc2cc(OCc3cncc(C#N)c3)c(CN(C)Cc3nnn[nH]3)cc2Cl)cccc1-c1cccc(OCCCN2CC[C@@H](O)C2)c1C` [Example 1016, (R)-5-((2-((((1H-Tetrazol-5-yl)methyl)(methyl)amino)methyl)-4-chloro-5-((3′-(3-(3-hydroxypyrrolidin-1-yl)propoxy)-2,2′-dimethyl-[1,1′-biphenyl]-3-yl)methoxy)phenoxy)-methyl)nicotinonitrile] it was 1.9 nM; in that of `Cc1c(COc2cc(OCc3cncc(C#N)c3)c(CN3CCC(c4nnn[nH]4)C3)cc2Cl)cccc1-c1cccc(OCCCN2CC[C@@H](O)C2)c1C` (stereo partly drawn) [Example 1017, 5-((2-((3-(1H-Tetrazol-5-yl)pyrrolidin-1-yl)methyl)-4-chloro-5-((3′-(3-((R)-3-hydroxy-pyrrolidin-1-yl)propoxy)-2,2′-dimethyl-[1,1′-biphenyl]-3-yl)methoxy)phenoxy)methyl)-nicotinonitrile], 1.9 nM; in that of `Cc1c(COc2cc(OCc3cncc(C#N)c3)c(CN3CCCC(c4nnn[nH]4)C3)cc2Cl)cccc1-c1cccc(OCCCN2CC[C@@H](O)C2)c1C` (stereo partly drawn) [Example 1018, 5-((2-((3-(1H-Tetrazol-5-yl)piperidin-1-yl)methyl)-4-chloro-5-((3′-(3-((R)-3-hydroxy-pyrrolidin-1-yl)propoxy)-2,2′-dimethyl-[1,1′-biphenyl]-3-yl)methoxy)phenoxy)methyl)-nicotinonitrile], 0.5 nM.
For `Cc1c(COc2cc(OCc3cncc(C#N)c3)c(CN3CCCCC3c3cn[nH]c3)cc2Cl)cccc1-c1cccc(OCC2CCCN(C)C2)c1Cl` (stereo not shown) [Example 1020, 5-((2-((2-(1H-Pyrazol-4-yl)piperidin-1-yl)methyl)-4-chloro-5-((2′-chloro-2-methyl-3′-((1-methylpiperidin-3-yl)methoxy)-[1,1′-biphenyl]-3-yl)methoxy)phenoxy)methyl)-nicotinonitrile], the half-maximal inhibitory concentration (IC50) was 2.8 nM.
